# In US20100166846A1 (priority 2008, published 2010):
# Like-named read-outs stand apart in the source and are kept apart here.
# Key:
# [1] = rat liver
# Text: The tissue from the control animals (water) served as the 100% of the toxin remaining in the tissue. The animals receiving: • a.
# [2] = humans, reference (7); cited from earlier work
compound,measurement,setting,value
"N[C@@H](CCC(=O)N[C@@H](CS)C(=O)NCC(=O)O)C(=O)O [Plain glutathione, glutathione]",removal of toxin,"[1]; CO-60, intravenous administration",70%
same,removal of toxin,"[1]; CO-60, oral administration",10%
same,absorption after oral ingestion,[2],not absorbed
COc1ccccc1OCC(O)COC(N)=O (centres unmarked) [methocarbolmol],tolerability in the animal,"canine with myoclonus, initial symptom management",neither of which was tolerated
CN1C(=O)CN=C(c2ccccc2)c2cc(Cl)ccc21 [valium],tolerability in the animal,"dog, in vivo",neither of which was tolerated
